The values below come from US20220265549A1, “PHARMACEUTICAL COMPOSITION COMPRISING ENSIFENTRINE” (VERONA PHARMA PLC, priority 2019, published 2022).

The nature of series [1]: Particle size distribution of materials (laser diffraction). Type of series: physicochemical. The following applies: volume particle size distribution. From the text:
Particle sizes are described herein by reference to the Dv50 value, which is the median particle size for a volume distribution. Thus, half the volume of the particles have diameters of less than the Dv50 value and half the volume of the particles have diameters of greater than the Dv50 value. This is a well-known manner in which to describe particle size distributions. The parameters of Dv10 and Dv90 may also be used to characterise a particle size distribution of a sample. 10% of the volume of particles have a diameter of less than the Dv10 value. 90% of the volume of the particles have a diameter of less than the Dv90 value.
The technique used to measure the Dv50 (and Dv10 and Dv90) values as stated herein is typically laser diffraction. For instance, the coarse lactose particles typically have a particle size distribution with a Dv50 value of from 40 μm to 80 μm as measured by laser diffraction and the fine lactose particles have a particle size distribution with a Dv50 value of from 5 μm to 10 μm as measured by laser diffraction.
The particle size distribution of low aqueous solubility materials, for instance the ensifentrine particles, may be as measured by laser diffraction using a wet powder dispersion system. For instance, the particle size distribution can be measured by laser diffraction using a Malvern Spraytec in conjunction with a wet dispersion cell. Typically, the instrument parameters for the Malvern Spraytec are as follows: • particle—standard opaque particle; • refractive index Particle—1.50; • refractive index (imaginary)—0.50; • density of particle—1.00; • refractive index of dispersant—1.33; • controller unit—1000 RPM; • measurement type—timed; • initial sampling time—30 s; • obscuration—20%-30%; • dispersant—1% Polysorbate 20 in deionised water.
The particle size distribution of materials soluble in water, for instance lactose particles, may be as measured by laser diffraction using a dry powder dispersion system. For instance, the particle size distribution can be measured by laser diffraction using a Malvern or Sympatec dry dispersion cell. […]

In series [2] the test system is patients with COPD. As to the kind of experiment: Phase II clinical study, single dose part (FEV1). Type of series: in vivo, human. As for the experimental part:
(§1) A 2-part, 37 patient, Phase II single and repeat dose clinical study with ensifentrine in patients with COPD was completed using DPI formulations 12, 13 and 14 (Table 6).
Ensifentrine doses of 0.15, 0.5, 1.5, and 3 mg provided dose-dependent improvements from baseline in peak Forced Expiratory Volume in one second (FEV1) (over 4 hours) of up to 333 mL compared with placebo (p<0.01 for 1.5 mg and 3 mg doses).

For series [3], the system named is patients with COPD. The series is described as follows: Phase II clinical study, repeat dose crossover part (FEV1). It counts as in vivo, human. The following applies: for Improvement from baseline in peak FEV1 (over 4 hours) on Day 7 compared with placebo: DPI; for Improvement in morning trough FEV1 on Day 7 compared with placebo: twice daily over 7 days, dose not identified. As for the experimental part: as §1
The second part of the study was a complete block crossover study using the same patients that were dosed in the first part of the study. Ensifentrine doses of 0.15 mg to 3 mg dosed twice daily over 7 days also provided dose-dependent, highly statistically significant and clinically meaningful improvements from baseline in peak FEV1 (over 4 hours) on Day 7 of 102, 175, 180, and 260 mL, respectively, compared with placebo (p≤0.0001 for all dose groups). The improvement in FEV1 was sustained over the 12 hour dosing interval as shown by clinically meaningful and statistically significant improvements in average FEV1 over 12 hours of up to 147 mL (p<0.05 for all dose groups) and in morning trough FEV1 on Day 7 of 98, 87, and 97 mL, respectively, compared with placebo (p≤0.001 for each dose).

Regarding `COc1cc2c(cc1OC)-c1c/c(=N\c3c(C)cc(C)cc3C)n(CCNC(N)=O)c(=O)n1CC2` [Ensifentrine, 9,10-dimethoxy-2-(2,4,6-trimethylphenylimino)-3-(N-carbamoyl-2-aminoethyl)-3,4,6,7-tetrahydro-2H-pyrimido[6,1-a]isoquinolin-4-one], the “Dv10 (μm)” value in series [1] was 0.5 μm. The “Dv50 (μm)” value in series [1] worked out at 1.3 μm. Further, the “Dv90 (μm)” value in series [1] worked out at 3.6 μm. In addition, the “Improvement from baseline in peak FEV1 (over 4 hours) compared with placebo” value in the series with patients with COPD [2] (single doses of 0.15, 0.5, 1.5 and 3 mg by DPI, maximum across doses) is “up to 333 mL”. For the same molecule, the Bronchodilatory effect entry in the series with patients with COPD [2] (single doses up to 3 mg by DPI, over 12 hours, COPD patients) is “rapid, dose-dependent, and statistically significant bronchodilatory effect”. Besides, the “Improvement in average FEV1 over 12 hours” value in the series with patients with COPD [3] (0.15 mg to 3 mg twice daily over 7 days, maximum across doses) is on record as “up to 147 mL”. Besides, the “Improvement from baseline in peak FEV1 (over 4 hours) on Day 7 compared with placebo” value with patients with COPD [3] (0.15 mg twice daily over 7 days) is 102 mL; in the series on patients with COPD [3] (0.5 mg twice daily over 7 days), 175 mL; with patients with COPD [3] (1.5 mg twice daily over 7 days), 180 mL; in the series with patients with COPD [3] (3 mg twice daily over 7 days), 260 mL. In addition, the “Improvement in morning trough FEV1 on Day 7 compared with placebo” value in the series on patients with COPD [3] (first of three listed values) is on record as 98 mL; in the series with patients with COPD [3] (second of three listed values), 87 mL; with patients with COPD [3] (third of three listed values), 97 mL.
